Laboratory results published in patent US20110045101A1, “FUNGICIDAL SUBSTITUTED AZOLES” (E.I. Du Pont De Nemours and Company, priority 2009, published 2011).
Marks after values point to notes of the source that are not given here.

Legend:
Type in all cases: in vivo
Conditions in all cases: 100 = 100% disease control
Septoria tritici = assay: Test G: wheat leaf blotch on wheat seedlings, sprayed the day before inoculation, visual disease rating
Outline: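 Spray to run-off, 200 ppm (≈500 g/ha; starred = 40 ppm), acetone/water 50/50 + 250 ppm Trem® 014. Spore inoculation +1 d. 24° C saturated 48 h → 20° C 19 d. Visual rating.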

[1] = test system: Puccinia recondita f. sp. tritici; assay: Test H: wheat leaf rust, test suspension sprayed after inoculation of wheat seedlings, visual disease rating
Outline: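 Wheat seedlings inoculated with P. recondita spores, held 24 h saturated at 20 °C, then 2 days in growth chamber at 20 °C; compound suspension (acetone/water with Trem 014) sprayed to run-off afterwards. Rated visually; 200 ppm (≈500 g/ha) unless marked *, which denotes 40 ppm.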

Alternaria solani = assay: Test D: tomato early blight, sprayed the day before inoculation, visual disease rating
Outline: (§1)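 Acetone solution (3% of final volume) of each compound is suspended in 50/50 acetone/water with 250 ppm Trem® 014. Plants are sprayed to run-off at 200 ppm, equivalent to 500 g/ha, or at 40 ppm for starred values.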

[2] = test system: Erysiphe graminis f. sp. tritici; assay: Test J: wheat powdery mildew on wheat seedlings, sprayed the day before inoculation, visual disease rating
Outline: as §1

Botrytis cinerea = assay: Test C: tomato Botrytis on tomato seedlings, sprayed the day before inoculation, visual disease rating
Outline: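 Disease ratings refer to tomato seedlings treated by run-off spraying with compound suspensions, mostly 200 ppm (500 g/ha equivalent) and in marked cases 40 ppm. Carrier: acetone/purified water 50/50 with 250 ppm polyhydric alcohol ester surfactant, after predissolving in acetone.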

[3] = test system: Puccinia recondita f. sp. tritici; assay: Test I: wheat leaf rust on wheat seedlings, sprayed the day before inoculation, visual disease rating
Outline: as §1

Septoria nodorum = assay: Test F: wheat glume blotch on wheat seedlings, sprayed the day before inoculation, visual disease rating
Outline: as §1

[4] = 200 ppm, 0 = no control relative to controls

SMILES	Test G disease control rating (Septoria tritici; [4]) [%]	Test H disease control rating ([1]; 40 ppm (marked *))	Test D disease control rating (Alternaria solani; 40 ppm (marked *))	Test J disease control rating ([2]; 40 ppm (marked *))	Test C disease control rating (Botrytis cinerea; 40 ppm (marked *))	Test I disease control rating ([3]; 40 ppm (marked *))	Test F disease control rating (Septoria nodorum; 40 ppm (marked *))	Test G disease control rating (Septoria tritici; 40 ppm (marked *))	Test H disease control rating [1, 4] [%]	Test D disease control rating (Alternaria solani; [4]) [%]	Test J disease control rating [2, 4] [%]	Test C disease control rating (Botrytis cinerea; [4]) [%]	Test I disease control rating [3, 4] [%]	Test F disease control rating (Septoria nodorum; [4]) [%]
COc1cc(F)c(-c2c(Cl)nc(Cl)n2-c2ccc(C)c(I)c2)c(F)c1 [compound 647]	95	0* %	0* %	69* %	0* %	0* %	0* %							
COC(=O)c1ccc(-n2c(Cl)nc(Cl)c2-c2c(F)cccc2F)cc1 [compound 649]		0* %	0* %	0* %	0* %	61* %	0* %	97* %						
CN(C)c1ccc(-n2cnc(Cl)c2-c2c(F)cccc2F)cc1Cl [compound 650]		9* %	0* %	0* %	0* %	0* %	0* %	0* %						
COc1cc(OC)cc(-c2c(Br)nc(C)n2-c2c(F)cc([N+](=O)[O-])cc2F)c1 [compound 651]	97								0	0	79	97	95	60
CN(C)c1c(Cl)cc(-n2cnc(Cl)c2-c2c(F)cccc2F)cc1Cl [compound 652]		6* %	0* %	0* %	0* %	0* %	0* %	0* %						
COc1cc(F)c(-c2c(Cl)nc(Cl)n2-c2ccc(C)cc2F)c(F)c1 [compound 653]		99* %	99* %	99* %	99* %	100* %	78* %	100* %						
COc1cc(F)c(-c2c(Cl)nc(Br)n2-c2ccc(C)cc2F)c(F)c1 [compound 654]		100* %	99* %	100* %	100* %	99* %	91* %	98* %						
COc1cc(F)c(-c2c(Cl)nc(Br)n2-c2ccc(C)c(I)c2)c(F)c1 [compound 655]		49* %	0* %	0* %	8* %	9* %	0* %	97* %						
N#Cc1ccc(F)c(-c2c(Cl)ncn2-c2ccc(F)cc2)c1F [compound 656]	99								9	100	100	100	100	20
COc1cc(OC)cc(-n2c(Br)nc(C)c2-c2c(F)cc(OC)cc2F)c1 [compound 657]		100* %	99* %	96* %	99* %	100* %	99* %	99* %						
CCOc1ccc(F)c(-c2c(Cl)ncn2-c2ccc(Cl)cc2)c1F [compound 660]	100								9	98	100	100	92	82
CCOc1ccc(F)c(-c2c(Cl)ncn2-c2cccc(F)c2)c1F [compound 661]	99								0	99	100	99	100	87
CCOc1ccc(F)c(-c2c(Cl)nc(Br)n2-c2ccc(Cl)cc2)c1F [compound 662]	99								0	99	100	100	98	100
CCOc1ccc(F)c(-c2c(Cl)nc(Br)n2-c2cccc(F)c2)c1F [compound 663]	99								54	99	100	100	99	99
CCOc1ccc(F)c(-c2c(Cl)nc(Cl)n2-c2ccc(Cl)cc2)c1F [compound 664]	99								46	99	100	100	97	96
Cc1nc(Cl)c(-c2c(F)cccc2F)n1-c1ccc(Cl)nc1 [compound 666]	99								100	100	100	100	100	99
COc1cc(F)c(-c2c(Cl)nc(Cl)n2Cc2ccc(Cl)nc2)c(F)c1 [compound 667]	99								8	100	76	100	97	100
COc1cc(F)c(-c2c(Cl)nc(Cl)n2Cc2ccc(Cl)nc2)c(F)c1Cl [compound 668]	99								0	99	96	100	85	91
COc1cc(F)c(-c2c(Cl)ncn2Cc2ccc(Cl)nc2)c(F)c1 [compound 669]	99								73	100	0	100	98	99
COc1cc(F)c(-c2c(Cl)nc(Br)n2Cc2ccc(Cl)nc2)c(F)c1 [compound 670]	98								0	100	94	100	98	100
